# Experimental data as given in PubChem BioAssay AID2060600 (Molecular Pharmacology Branch, DTP, NCI, 2025).
# Test system: 996289-038-R-J1-PDC complex spheroid viability
# Assay: Anticancer human tumor 996289-038-R-J1-PDC patient-derived colon adenocarcinoma cell line growth inhibition [CLK]
# Conditions: for IC50: curve of first compound; for viability, T/C: stronger effect = lower value
# Method in brief: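 Multi-cell-type spheroids combined patient-derived tumor cells with HUVEC endothelial cells and human mesenchymal stem cells. Paired agents were dosed in half-log steps down from about clinical Cmax, or from 10 microM where Cmax was unknown.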
# [1] = second compound 0.0316 µM, first compound 0.00316 µM
# [2] = second compound 0.0316 µM, first compound 0.01 µM
# [3] = second compound 0.0316 µM, first compound 0.0316 µM
# [4] = second compound 0.0316 µM, first compound 0.1 µM
# [5] = second compound 0.1 µM, first compound 0.00316 µM
# [6] = second compound 0.1 µM, first compound 0.01 µM
# [7] = second compound 0.1 µM, first compound 0.0316 µM
# [8] = second compound 0.1 µM, first compound 0.1 µM
# [9] = second compound 0.316 µM, first compound 0.00316 µM
# [10] = second compound 0.316 µM, first compound 0.01 µM
# [11] = second compound 0.316 µM, first compound 0.0316 µM
# [12] = second compound 0.316 µM, first compound 0.1 µM
# [13] = second compound 1 µM, first compound 0.00316 µM
# [14] = second compound 1 µM, first compound 0.01 µM
# [15] = second compound 1 µM, first compound 0.0316 µM
# [16] = second compound 1 µM, first compound 0.1 µM
# [17] = second compound 3.16 µM, first compound 0.00316 µM
# [18] = second compound 3.16 µM, first compound 0.01 µM
# [19] = second compound 3.16 µM, first compound 0.0316 µM
# [20] = second compound 3.16 µM, first compound 0.1 µM
# [21] = second compound 10 µM, first compound 0.00316 µM
# [22] = second compound 10 µM, first compound 0.01 µM
# [23] = second compound 10 µM, first compound 0.0316 µM
# [24] = second compound 10 µM, first compound 0.1 µM
# 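Note: spheroids exposed to the agents for 7 days before readout.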
smiles,measurement,setting,value
CCc1c2c(nc3ccc(O)cc13)-c1cc3c(c(=O)n1C2)COC(=O)[C@]3(O)CC + CN1CCN(c2cc(C(=O)Nc3cc4cc(-c5cnn(C)c5)ccc4cn3)ccn2)CC1,IC50,second compound 0.0316 µM,126 nM
same,IC50,second compound 0.1 µM,58.6 nM
same,IC50,second compound 0.316 µM,16.6 nM
same,IC50,second compound 1 µM,< 3.16 nM
same,IC50,second compound 3.16 µM,< 3.16 nM
same,IC50,second compound 10 µM,< 3.16 nM
same,"viability, T/C",[1],89.7%
same,"viability, T/C",[2],79.2%
same,"viability, T/C",[3],57.2%
same,"viability, T/C",[4],56.6%
same,"viability, T/C","second compound 0.0316 µM, first compound 0.316 µM",43%
same,"viability, T/C","second compound 0.0316 µM, first compound 1 µM",26.9%
same,"viability, T/C",[5],91%
same,"viability, T/C",[6],70.7%
same,"viability, T/C",[7],55.6%
same,"viability, T/C",[8],44.8%
same,"viability, T/C","second compound 0.1 µM, first compound 0.316 µM",33.8%
same,"viability, T/C","second compound 0.1 µM, first compound 1 µM",19.5%
same,"viability, T/C",[9],57.9%
same,"viability, T/C",[10],51.2%
same,"viability, T/C",[11],46.2%
same,"viability, T/C",[12],35%
same,"viability, T/C","second compound 0.316 µM, first compound 0.316 µM",17.7%
same,"viability, T/C","second compound 0.316 µM, first compound 1 µM",6.98%
same,"viability, T/C",[13],6.14%
same,"viability, T/C",[14],5.27%
same,"viability, T/C",[15],2.85%
same,"viability, T/C",[16],1.7%
same,"viability, T/C","second compound 1 µM, first compound 0.316 µM",3.66%
same,"viability, T/C","second compound 1 µM, first compound 1 µM",5.38%
same,"viability, T/C",[17],1.13%
same,"viability, T/C",[18],0.73%
same,"viability, T/C",[19],1.24%
same,"viability, T/C",[20],1.43%
same,"viability, T/C","second compound 3.16 µM, first compound 0.316 µM",3.98%
same,"viability, T/C","second compound 3.16 µM, first compound 1 µM",8.54%
same,"viability, T/C",[21],1.3%
same,"viability, T/C",[22],2.51%
same,"viability, T/C",[23],0.56%
same,"viability, T/C",[24],0.63%
same,"viability, T/C","second compound 10 µM, first compound 0.316 µM",0.8%
same,"viability, T/C","second compound 10 µM, first compound 1 µM",3.96%
Cn1ncnc1[C@H]1c2n[nH]c(=O)c3cc(F)cc(c23)N[C@@H]1c1ccc(F)cc1 + CN1CCN(c2cc(C(=O)Nc3cc4cc(-c5cnn(C)c5)ccc4cn3)ccn2)CC1,IC50,second compound 0.0316 µM,> 100 nM
same,IC50,second compound 0.1 µM,> 100 nM
same,IC50,second compound 0.316 µM,> 100 nM
same,IC50,second compound 1 µM,< 0.316 nM
same,IC50,second compound 3.16 µM,< 0.316 nM
same,IC50,second compound 10 µM,< 0.316 nM
same,"viability, T/C","second compound 0.0316 µM, first compound 0.000316 µM",104%
same,"viability, T/C","second compound 0.0316 µM, first compound 0.001 µM",102%
same,"viability, T/C",[1],102%
same,"viability, T/C",[2],107%
same,"viability, T/C",[3],101%
same,"viability, T/C",[4],80.4%
same,"viability, T/C","second compound 0.1 µM, first compound 0.000316 µM",88.8%
same,"viability, T/C","second compound 0.1 µM, first compound 0.001 µM",96.9%
same,"viability, T/C",[5],87.6%
same,"viability, T/C",[6],97%
same,"viability, T/C",[7],95.5%
same,"viability, T/C",[8],86.8%
same,"viability, T/C","second compound 0.316 µM, first compound 0.000316 µM",72.3%
same,"viability, T/C","second compound 0.316 µM, first compound 0.001 µM",70.2%
same,"viability, T/C",[9],74.6%
same,"viability, T/C",[10],71.6%
same,"viability, T/C",[11],67.9%
same,"viability, T/C",[12],53%
same,"viability, T/C","second compound 1 µM, first compound 0.000316 µM",5.01%
same,"viability, T/C","second compound 1 µM, first compound 0.001 µM",4.06%
same,"viability, T/C",[13],4.98%
same,"viability, T/C",[14],6.96%
same,"viability, T/C",[15],6.27%
same,"viability, T/C",[16],4.4%
same,"viability, T/C","second compound 3.16 µM, first compound 0.000316 µM",0.64%
same,"viability, T/C","second compound 3.16 µM, first compound 0.001 µM",0.72%
same,"viability, T/C",[17],1.05%
same,"viability, T/C",[18],0.84%
same,"viability, T/C",[19],0.71%
same,"viability, T/C",[20],1.35%
same,"viability, T/C","second compound 10 µM, first compound 0.000316 µM",0.97%
same,"viability, T/C","second compound 10 µM, first compound 0.001 µM",0.51%
same,"viability, T/C",[21],1.37%
same,"viability, T/C",[22],2.6%
same,"viability, T/C",[23],0.38%
same,"viability, T/C",[24],0.92%
